Assays:
Falcipain 2 = Falcipain 2 (Plasmodium falciparum, UniProt Q8I6U4); experiment: Cysteine protease inhibition, progress curve method, falcipain; assay type: biochemical; conditions: 10 uM Cbz-Leu-Arg-AMC, 100 mM Na acetate pH 5.5, 5 mM cysteine
Description: Standard assay conditions for the determination of kinetic constants used 10 uM fluorogenic peptide substrate, Cbz-Phe-Arg-AMC for the cysteine proteases from Leishmania spp and Schistosoma Mansoni, Cbz-Leu-Arg-AMC for the cysteine proteases from Plasmodium falciparum and Trypanosoma brucei rhodesiensi, and Ac-Lys-Glu-Lys-Leu-Arg-AMC (4 uM final substrate concentration) for the cysteine protease from Trypoanosoma cruzi, and were determined in 100 mM Na acetate at pH 5.5 containing 5 mM cysteine. Stock substrate solutions were prepared at concentrations of […] in DMSO with 10 uM (4 uM for Ac-Lys-Glu-Lys-Leu-Arg-AMC) final substrate concentration in the assays. The final DMSO concentration was 2% and the final volume was 100 uL. All assays were conducted at ambient temperature. Product progress curves were generated over 20 to 30 minutes following formation of AMC product.
Potential inhibitors were evaluated using the progress curve method. Assays were carried out in the presence of variable concentrations of test compound. Reactions were initiated by addition of enzyme to buffered solutions of inhibitor and substrate. Data analysis was conducted according to one of two procedures depending on the appearance of the progress curves in the presence of inhibitors. For those compounds whose progress curves were linear, apparent inhibition constants (Ki,app) were calculated according to equation 1 (Brandt et al., Biochemitsry, 1989, 28, 140):
v=VmA/[Ka(1+I/Ki,app)+A] (1)
Where v is the velocity of the reaction with maximal velocity Vm, A is the concentration of substrate with Michaelis constant of Ka, and I is the concentration of inhibitor.
[AMC]=vsst+(v0−vss)[1−exp (−kobst)]/kobs (2)
Where [AMC] is the concentration of product formed over time t, v0 is the initial reaction velocity and vss is the final steady state rate. Values for kobs were then analyzed as a linear function of inhibitor concentration to generate an apparent second order rate constant (kobs/inhibitor concentration or kobs/[I]) describing the time-dependent inhibition. A complete discussion of this kinetic treatment has been fully described (Morrison et al., Adv. Enzymol. Relat. Areas Mol. Biol., 1988, 61, 201).
Exemplary inhibition data for the compounds used in the present method collected in accordance with the above-described procedure are listed in Table I.

Rhodazain = Rhodazain (Trypanosoma brucei rhodesiense, UniProt Q95PM0); experiment: Cysteine protease inhibition, progress curve method, rhodazain; assay type: biochemical, Trypanosoma brucei rhodesiensi; conditions: Rhodazain Ki (nM), 10 uM Cbz-Leu-Arg-AMC, 100 mM Na acetate pH 5.5, 5 mM cysteine
Rhodazain, sequence (Q95PM0 entry or part of it): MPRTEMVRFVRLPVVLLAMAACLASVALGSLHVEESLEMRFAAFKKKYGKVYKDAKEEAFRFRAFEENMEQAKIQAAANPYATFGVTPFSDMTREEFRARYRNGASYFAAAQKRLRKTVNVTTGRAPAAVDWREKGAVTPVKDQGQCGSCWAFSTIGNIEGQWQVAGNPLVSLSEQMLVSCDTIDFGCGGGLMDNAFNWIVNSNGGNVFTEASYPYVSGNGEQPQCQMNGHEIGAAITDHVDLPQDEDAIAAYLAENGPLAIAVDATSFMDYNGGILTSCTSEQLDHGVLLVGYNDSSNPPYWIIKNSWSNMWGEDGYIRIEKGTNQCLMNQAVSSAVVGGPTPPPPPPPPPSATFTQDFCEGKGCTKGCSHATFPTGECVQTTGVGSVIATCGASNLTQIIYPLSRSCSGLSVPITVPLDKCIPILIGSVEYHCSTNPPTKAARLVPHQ

Cruzain = Cruzain (Trypanosoma cruzi, UniProt P25779); experiment: Cysteine protease inhibition, progress curve method, cruzain; assay type: biochemical; conditions: 4 uM Ac-Lys-Glu-Lys-Leu-Arg-AMC, 100 mM Na acetate pH 5.5, 5 mM cysteine; read-out: Cruzain Ki
Cruzain, sequence (P25779 123-337): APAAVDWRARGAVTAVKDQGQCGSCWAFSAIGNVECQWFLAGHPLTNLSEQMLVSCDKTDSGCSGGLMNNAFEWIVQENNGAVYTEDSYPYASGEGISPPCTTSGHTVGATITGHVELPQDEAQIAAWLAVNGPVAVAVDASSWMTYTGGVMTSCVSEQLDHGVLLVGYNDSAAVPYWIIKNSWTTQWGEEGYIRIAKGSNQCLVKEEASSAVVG
In short: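 Kinetic constants from AMC-release progress curves over 20–30 min at ambient temperature in 100 mM Na acetate pH 5.5, 5 mM cysteine, 2% DMSO; enzyme added last to inhibitor plus substrate. Substrates: 10 uM Cbz-Phe-Arg-AMC (Leishmania, Schistosoma), 10 uM Cbz-Leu-Arg-AMC (falcipain), 4 uM Ac-Lys-Glu-Lys-Leu-Arg-AMC (cruzain). Ki,app from linear curves; time-dependent inhibition as kobs/[I].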

Falcipain 2, sequence (Q8I6U4 244-484): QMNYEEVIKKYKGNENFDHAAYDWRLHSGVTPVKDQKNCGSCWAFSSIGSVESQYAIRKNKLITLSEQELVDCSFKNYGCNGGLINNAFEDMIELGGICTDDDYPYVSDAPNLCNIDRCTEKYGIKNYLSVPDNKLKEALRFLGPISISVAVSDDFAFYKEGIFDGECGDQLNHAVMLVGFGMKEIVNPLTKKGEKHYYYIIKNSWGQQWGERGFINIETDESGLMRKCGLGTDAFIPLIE

Row | SMILES | Ki (Falcipain 2) | Ki (Rhodazain) | Ki (Cruzain)
1 | CC(C)C[C@@H](NC(=O)c1ccc2cc[nH]c2c1)C(=O)N[C@@H]1CCCN(S(=O)(=O)c2ccccn2)CC1=O (stereo in doubt) [Example 58, 1H-Indole-6-carboxylic acid {(S)-3-methyl-1-[3-oxo-1-(pyridine-2-sulfonyl)-azepan-4-ylcarbamoyl]-butyl}amide] | 7.1 nM | 3.1 nM | –
2 | CC(C)C[C@@H](NC(=O)c1cc2cc(OCCN3CCOCC3)ccc2o1)C(=O)NC1CCCN(C(=O)Cc2cccc(-c3ccccn3)c2)CC1=O (stereo partly drawn) [Example 3, 5-(2-morpholino-4-yl-ethoxy)-benzofuran-2-carboxylic acid ((S)-3-methyl-1-{3-oxo-1-[2-(3-pyridin-2-yl-phenyl)acetyl]-azepan-4-ylcarbamoyl}-butyl)amide] | 3 nM | – | –
3 | CC(C)C[C@H](NC(=O)c1ccc(-c2cccc(C(F)(F)F)c2)o1)C(=O)N[C@@H]1CCCN(S(=O)(=O)c2ccccn2)CC1=O [Example 66, 5-(3-Trifluoromethyl-phenyl)-furan-2-carboxylic acid {(S)-3-methyl-1-[3-oxo-1-(pyridine-2-sulfonyl)-azepan-4-ylcarbamoyl]-butyl}amide] | 10 nM | 5.1 nM | –
4 | COc1cc2cc(C(=O)N[C@@H](CC(C)C)C(=O)NC3CCCN(S(=O)(=O)c4cn(C)cn4)CC3=O)oc2cc1OC (stereo partly drawn) [Example 39, 5,6-Dimethoxy-benzofuran-2-carboxylic acid {(S)-3-methyl-1-[3-oxo-1-(1-methyl-1H-imidazole-4-sulfonyl)-azepan-4-ylcarbamoyl]-butyl}amide] | 3.9 nM | 2.2 nM | 7.4 nM
5 | CC(C)C[C@@H](NC(=O)c1ccc2[nH]ccc2c1)C(=O)N[C@@H]1CCCN(S(=O)(=O)c2cccc[n+]2[O-])CC1=O [Example 54, 1H-Indole-5-carboxylic acid {(S)-3-methyl-1-[3-oxo-1-(1-oxy-pyridine-2-sulfonyl)-azepan-4-ylcarbamoyl]-butyl}amide] | 7.8 nM | 4.1 nM | 5.2 nM
6 | CC(C)C[C@@H](NC(=O)c1ccc2[nH]ccc2c1)C(=O)NC1CCCN(S(=O)(=O)c2cccc[n+]2[O-])CC1=O (single isomer, unassigned) [Example 64] | 6.2 nM | 2.7 nM | 4.1 nM
7 | CC(C)C[C@H](NC(=O)c1cccc2ncccc12)C(=O)N[C@H]1CCCN(S(=O)(=O)c2ccccn2)CC1=O [Example 185, Quinoline-5-carboxylic acid {(S)-3-methyl-1-[3-oxo-1-(pyridine-2-sulfonyl)-azepan-4-ylcarbamoyl]-butyl}-amide] | 4.4 nM | 2.1 nM | 1.8 nM
8 | CC(C)C[C@@H](NC(=O)c1cc2cc(OCCN3CCOCC3)ccc2o1)C(=O)N[C@@H]1CCCN(C(=O)Nc2ccccc2)CC1=O [Example 5, 4-((S)-4-Methyl-2-{[5-(2-morpholino-4-yl-ethoxy)-benzofuran-2-carbonyl]amino}-pentanoylamino)-3-oxo-azepane-1-carboxylic acid phenylamide] | 34 nM | – | –
9 | [2H]C1(NC(=O)C(CC(C)C)NC(=O)c2cc3ccccc3o2)CCCN(S(=O)(=O)c2ccccn2)C([2H])([2H])C1=O [Example 100, Benzofuran-2-carboxylic acid {(S)-3-methyl-1-[(2,2′,4-tridueterio)-3-oxo-1-(pyridine-2-sulfonyl)-azepan-4-ylcarbamoyl]-butyl}amide] | 6.4 nM | 2.5 nM | –
10 | COc1ccc(S(=O)(=O)N2CCC[C@@H](NC(=O)[C@H](CC(C)C)NC(=O)c3ccc(OC)c(OC)c3)C(=O)C2)cc1 [Example 107, 3,4-Dimethoxy-N—{(S)-1-[1-(4-methoxy-benzenesulfonyl)-3-oxo-azepan-4-ylcarbamoyl]-3-methyl-butyl}-benzamide] | 5.9 nM | – | –
11 | CC(C)C[C@@H](NC(=O)c1ccc(-c2cccc(C(F)(F)F)c2)o1)C(=O)N[C@@H]1CCCN(S(=O)(=O)c2cccc[n+]2[O-])CC1=O [Example 119, 5-(3-Trifluoromethyl-phenyl)-furan-2-carboxylic acid {(S)-3-methyl-1-[3-oxo-1-(1-oxy-pyridine-2-sulfonyl)-azepan-4-ylcarbamoyl]-butyl}amide] | 8.1 nM | 5.1 nM | –
12 | COc1ccc2oc(C(=O)N[C@H](CC(C)C)C(=O)N[C@@H]3CCCN(S(=O)(=O)c4ccccn4)CC3=O)cc2c1 (single isomer, unassigned) [Example 69] | 5.6 nM | 2.2 nM | –
13 | CC(C)C[C@@H](NC(=O)c1cc2cc(OCCN3CCNCC3)ccc2o1)C(=O)N[C@@H]1CCCN(S(=O)(=O)c2ccccn2)CC1=O [Example 23, 5-(2-Piperizin-1-yl-ethoxy)-benzofuran-2-carboxylic acid {(S)-3-methyl-1-[3-oxo-1-(pyridine-2-sulfonyl)-azepan-4-ylcarbamoyl]-3-butyl}-amide] | 14 nM | – | –

More lines, main results first:

Row | Ki (Falcipain 2) | SMILES | Ki (Rhodazain) | Ki (Cruzain)
14 | 5.6 nM | COc1cccc(S(=O)(=O)N2CCC[C@H](NC(=O)[C@H](CC(C)C)NC(=O)c3cc4cccc(OC)c4o3)C(=O)C2)c1 [Example 138, 7-Methoxy-benzofuran-2-carboxylic acid-{(S)-1-[1-(3-methoxy-benzenesulfonyl)-3-oxo-azepan-4-ylcarbamoyl]-3-methyl-butyl}-amide] | – | –
15 | 96 nM | CC(C)C[C@@H](NC(=O)c1ccc([N+](=O)[O-])o1)C(=O)N[C@@H]1CCCN(S(=O)(=O)c2ccccn2)CC1=O (stereo in doubt) [Example 35, 5-Nitro-furan-2-carboxylic acid {(S)-3-methyl-1-[3-oxo-1-(pyridine-2-sulfonyl)-azepan-4-ylcarbamoyl]-butyl}amide] | – | –
16 | 5.2 nM | COc1ccc(S(=O)(=O)N2CCCC(NC(=O)C(CC(C)C)NC(=O)c3ccc4c(c3)OCO4)C(=O)C2)cc1 (stereo in doubt) [Example 73, Benzo[1,3]dioxole-5-carboxylic acid {(S)-1-[1-(4-methoxy-benzenesulfonyl)-3-oxo-azepan-4-ylcarbamoyl]-3-methyl-butyl}-amide] | – | –
17 | 65 nM | CC(C)C[C@@H](NC(=O)c1cc2cc(OCCN3CCCCC3)ccc2o1)C(=O)N[C@@H]1CCCN(S(=O)(=O)c2ccccc2)CC1=O (stereo in doubt) [Example 9, 5-(2-Piperidin-1-yl-ethoxy)-benzofuran-2-carboxylic acid [(S)-1-(1-benzenesulfonyl-3-oxo-azepan-4-ylcarbamoyl)-3-methyl-butyl]amide] | – | –
18 | 43 nM | O=C(N[C@@H](CC1CCCCC1)C(=O)N[C@H]1CCCN(S(=O)(=O)c2cccc[n+]2[O-])CC1=O)c1ccc(-c2cccc(C(F)(F)F)c2)o1 [Example 169, 5-(3-Trifluoromethyl-phenyl)-furan-2-carboxylic acid {(S)-2-cyclohexyl-1-[3-oxo-1-(1-oxy-pyridine-2-sulfonyl)-azepan-4-ylcarbamoyl]-ethyl}-amide] | – | –
19 | 5.3 nM | CC(C)C[C@@H](NC(=O)c1cc2ccccc2s1)C(=O)N[C@@H]1CCCN(S(=O)(=O)c2cccc[n+]2[O-])CC1=O [Example 46, Benzo[b]thiophene-2-carboxylic acid {(S)-3-methyl-1-[3-oxo-1-(1-oxy-pyridine-2-sulfonyl)-azepan-4-ylcarbamoyl]-butyl}amide] | – | 6.1 nM
20 | 3.4 nM | COc1cccc2cc(C(=O)N[C@@H](CC(C)C)C(=O)N[C@H]3CCCN(S(=O)(=O)c4ccc(Cl)cc4)CC3=O)oc12 [Example 133, 7-Methoxy-benzofuran-2-carboxylic acid-{(S)-1-[1-(4-chloro-benzenesulfonyl)-3-oxo-azepan-4-ylcarbamoyl]-3-methyl-butyl}-amide] | – | –
21 | 6.8 nM | Cc1oc(-c2ccccc2)nc1C(=O)N[C@H](CC(C)C)C(=O)NC1CCCN(S(=O)(=O)c2cccc[n+]2[O-])CC1=O (stereo partly drawn) [Example 117, 5-Methyl-2-phenyl-oxazole-4-carboxylic acid {(S)-3-methyl-1-[3-oxo-1-(1-oxy-pyridine-2-sulfonyl)-azepan-4-ylcarbamoyl]-butyl}amide] | – | 14 nM
